Laboratory results as given in patent US11786534B2 (TAIHO PHARMACEUTICAL CO., LTD., priority 2019, dated 2023).

What was measured:
[1] = target: Ba/F3-EGFR (WT) (Homo sapiens, UniProt P00533); assay: Growth inhibition of cell line expressing wild-type EGFR; type: cell-based, mouse; conditions: Test Example 4, Table 13; same procedures as Test Example 2; read-out: BaF3_EGFR (WT) IC50 value
Text: (§1) Test for inhibitory activity against the growth of cell lines expressing wild-type and mutated EGFRs (in vitro)
(§2) (1) Mouse cell line Ba/F3-EGFR (d746-750/T790M/C797S) transfected with and stably expressing EGFR (d746-750/T790M/C797S), mouse cell Ba/F3-EGFR (L858R/T790M/C797S) transfected with and stably expressing EGFR (L858R/T790M/C797S), and mouse cell line Ba/F3-EGFR (WT) transfected with and stably expressing wild-type EGFR were each suspended in RPMI-1640 cell culture medium (RPMI-1640, 10% FBS, 100 unit/ml penicillin, 0.1 mg/ml streptomycin). In the case of the mouse cell line Ba/F3-EGFR (WT), RPMI-1640 cell culture medium containing EGF at a final concentration of 50 ng/ml was used to suspend this cell line. It should be noted that the mouse cell line Ba/F3-EGFR (d746-750/T790M/C797S) transfected with and stably expressing EGFR (d746-750/T790M/C797S), the mouse cell line Ba/F3-EGFR (L858R/T790M/C797S) transfected with and stably expressing EGFR (L858R/T790M/C797S) and the mouse cell line Ba/F3-EGFR (WT) transfected with and stably expressing wild-type EGFR were prepared by using nucleotide sequences encoding the proteins of SEQ ID NOs: 1 and 2 in accordance with Test Example 1 in WO2018/079310, These cell suspensions were seeded in wells of 96-well flat -bottomed plates. The compounds of the present invention were dissolved in DMSO, and serial dilutions of these test compounds were prepared with DMSO (1000-fold of the final concentration). Each test compound solution in DMSO or DMSO alone was diluted with RPMI-1640 cell culture medium for each cell line, and this dilution was added to wells of the cell culture plate such that the final concentration of DMSO was 0.1%, followed by culture at 37° C. for 3 days in a 5% carbon dioxide gas-containing incubator. Before and after addition of each test compound solution in DMSO, the number of cells was counted using the CellTiter-Glo® system (Promega) on the basis of the protocol recommended by Promega.
(§3) In each cell line, the rate of cell growth inhibition was calculated according to the equation shown below in wells to which each test compound was added at different concentrations. Moreover, the inhibition rate at each concentration was plotted for each test compound, and the concentration of each test compound required to give 50% cell survival rate, i.e., IC50 (nM) was determined by curve fitting software XLfit (IDBS).
(§4) Cell survival rate (%)=T/C×100
(§5) T: emission intensity in a well cultured for 3 days after addition of a test compound solution
(§6) C: emission intensity in a well cultured for 3 days after addition of DMSO
(§7) In accordance with the same procedures as shown in Test Example 2, the compounds of the present invention were tested for their inhibitory activity against the growth of the cell hoes expressing wild-type and mutated EGFRs.

[2] = target: Ba/F3-EGFR (L858R/T790M/C797S) (Homo sapiens, UniProt P00533, T790M/C797S/L858R, cells depend on it); assay: Growth inhibition of cell line expressing EGFR (L858R/T790M/C797S); type: cell-based, mouse; conditions: Test Example 4, Table 13; same procedures as Test Example 2; read-out: BaF3_EGFR (L858R/T790M/C797S) IC50 value
Text: as §1, §2, §3, §4, §5, §6, §7

[3] = target: Ba/F3-EGFR (d746-750/T790M/C797S) (Homo sapiens, UniProt P00533, DEL746-750/T790M/C797S, cells depend on it); assay: Growth inhibition of cell line expressing EGFR (d746-750/T790M/C797S); type: cell-based, mouse; conditions: Test Example 4, Table 13; same procedures as Test Example 2; read-out: BaF3_EGFR (d746-750/T790M/C797S) IC50 value
Text: as §1, §2, §3, §4, §5, §6, §7

[4] = target: T1, human EGFR (L858R/T790M/C797S) (Homo sapiens, UniProt P00533, C797S/L858R/T790M); assay: Inhibitory activity against EGFR (L858R/T790M/C797S) kinase; type: biochemical
T1 construct: made in house; host or cells: Sf9 insect cells, baculovirus
Procedure, shortened: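 GST-tagged cytoplasmic domain of human EGFR L858R/T790M/C797S, expressed in Sf9 insect cells via baculovirus and glutathione-purified. Kinase reaction run at 0.5 μM ATP final; IC50 (nM) determined per compound.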

[5] = target: T2, human EGFR (L858R/C797S) (Homo sapiens, UniProt P00533, C797S/L858R); assay: Inhibitory activity against EGFR (L858R/C797S) kinase; type: biochemical
T2 construct: purchased SignalChem
Procedure, shortened: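 Purified recombinant human EGFR (C797S/L858R) kinase, final ATP 4 μM, 90-minute kinase reaction, otherwise per the EGFR (d746-750/C797S) protocol. IC50 (nM) determined from inhibition data.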

[6] = target: T3, human EGFR (WT) (Homo sapiens, UniProt P00533); assay: Inhibitory activity against EGFR (WT) kinase; type: biochemical
T3 construct: purchased Carna Biosciences Inc., Japan
Procedure, shortened: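 Purified recombinant human wild-type EGFR kinase, with ATP at 1.5 μM final. Compound inhibition of kinase activity read out and fitted to give IC50 (nM).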

[7] = target: T4, human EGFR (d746-750/T790M/C797S) (Homo sapiens, UniProt P00533, C797S/DEL746-750/T790M); assay: Inhibitory activity against EGFR (d746-750/T790M/C797S) kinase; type: biochemical
T4 construct: made in house; host or cells: Sf9 insect cells, baculovirus
Procedure, shortened: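 GST-fused cytoplasmic domain of human EGFR d746-750/T790M/C797S (Sf9-expressed) was incubated with 250 nM biotinylated peptide, 6 μM ATP, 10 mM MgCl2 and 10 mM MnCl2 (2.5% DMSO) for 120 min at 25 °C. After an EDTA stop, phosphotyrosine was detected by Eu-PT66/SureLight APC-SA TR-FRET (665/620 nm, excitation 337 nm). Background wells received EDTA before enzyme.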

[8] = target: T5, human EGFR (d746-750/C797S) (Homo sapiens, UniProt P00533, C797S/DEL746-750); assay: Inhibitory activity against EGFR (d746-750/C797S) kinase; type: biochemical
T5 construct: purchased SignalChem
Procedure, shortened: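 Recombinant human EGFR d746-750/C797S in 13.5 mM Tris pH 7.5 with 2 mM DTT and 0.009% Tween-20. Reaction ran 60 min with 14 μM ATP, 20 mM MgCl2 and 12.5 mM MnCl2, stopped by 40 mM EDTA. IC50 in nM.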

[9] = Test Example 3, Table 9; same procedures as 2) in Test Example 1
[10] = Test Example 3, Table 11; same procedures as 4) in Test Example 1
[11] = Test Example 3, Table 12; same procedures as 5) in Test Example 1
[12] = Test Example 3, Table 8; same procedures as 1) in Test Example 1
[13] = Test Example 3, Table 10; same procedures as 3) in Test Example 1

Compound	GI50 [1] [nM]	GI50 [2] [nM]	GI50 [3] [nM]	IC50 [4, 9] [nM]	IC50 [5, 10] [nM]	IC50 [6, 11] [nM]	IC50 [7, 12] [nM]	IC50 [8, 13] [nM]	IC50 ([4]; Test Example 1, Table 3, ATP 0.5 μM) [nM]	IC50 ([5]; Test Example 1, Table 5, ATP 4 μM, 90 minutes) [nM]	IC50 ([6]; Test Example 1, Table 6, ATP 1.5 μM) [nM]	IC50 ([7]; Test Example 1, Table 2, ATP 6 μM, 25° C., 120 minutes) [nM]	IC50 ([8]; Test Example 1, Table 4, ATP 14 μM, 60 minutes) [nM]
C#Cc1c(-c2cnc3ccccc3c2)c2c(N)ncnc2n1C12CCC(NC(=O)c3cnco3)(CC1)C2 [Example 47]	2060	382	33	–	–	–	–	–	–	–	–	–	–
C#Cc1c(-c2cnc3ccccc3c2)c2c(N)ncnc2n1C12CCC(NC(=O)OCc3cnccn3)(CC1)C2 [Example 59, Pyrazin-2-ylmethyl (4-(4-amino-6-ethynyl-5-(quinolin-3-yl)-7H-pyrrolo[2,3-d]-pyrimidin-7-yl)bicyclo[2.2.1]heptane-1-yl)carbamate]	–	–	–	0.47	1.7	2.2	0.37	0.83	–	–	–	–	–
C#Cc1c(-c2cnc3ccccc3c2)c2c(N)ncnc2n1C12CCC(NC(=O)c3cccc[n+]3[O-])(CC1)C2 [Example 60, 2-((4-(4-Amino-6-ethynyl-5-(quinolin-3-yl)-7H-pyrrolo[2,3-d]pyrimidin-7-yl)bicyclo-[2.2.1]heptane-1-yl)carbamoyl)pyridine 1-oxide]	–	–	–	< 0.3	0.48	0.72	< 0.3	0.3	–	–	–	–	–
C#Cc1c(-c2cnc3ccccc3c2)c2c(N)ncnc2n1C12CCC(NC(=O)N3CCOCC3)(CC1)C2 [Example 61, N-(4-(4-Amino-6-ethynyl-5-(quinolin-3-yl)-7H-pyrrolo[2,3-d]pyrimidin-7-yl)bicyclo-[2.2.1]heptan-1-yl)morpholine-4-carboxamide]	–	–	–	1.6	1.1	2.7	< 0.3	0.54	–	–	–	–	–
C#Cc1c(-c2cnc3ccccc3c2)c2c(N)ncnc2n1C12CCC(NC(=O)c3cnc4ccccn34)(CC1)C2 [Example 64, N-(4-(4-Amino-6-ethynyl-5-(quinolin-3-yl)-7H-pyrrolo[2,3-d]pyrimidin-7-yl)bicyclo-[2.2.1]heptan-1-yl)imidazo[1,2-a]pyridine-3-carboxamide]	–	–	–	< 0.3	0.32	0.41	< 0.3	0.86	–	–	–	–	–
C#Cc1c(-c2cnc3ccccc3c2)c2c(N)ncnc2n1C12CCC(NC(=O)c3cnc4cnccn34)(CC1)C2 [Example 65]	–	–	–	< 0.3	< 0.3	< 0.3	< 0.3	0.4	–	–	–	–	–
C#Cc1c(-c2cnc3ccccc3c2)c2c(N)ncnc2n1C12CCC(NC(=O)c3cnc(CO)cn3)(CC1)C2 [Example 66, N-(4-(4-Amino-6-ethynyl-5-(quinolin-3-yl)-7H-pyrrolo[2,3-d]pyrimidin-7-yl)bicyclo-[2.2.1]heptan-1-yl)-5-(hydroxymethyl)pyrazine-2-carboxamide]	–	–	–	< 0.3	< 0.3	< 0.3	< 0.3	< 0.3	–	–	–	–	–
C#Cc1c(-c2cnc3ccccc3c2)c2c(N)ncnc2n1C12CCC(NC(=O)c3cnc(CNC)cn3)(CC1)C2 [Example 67, N-(4-(4-Amino-6-ethynyl-5-(quinolin-3-yl)-7H-pyrrolo[2,3-d]pyrimidin-7-yl)bicyclo-[2.2.1]heptan-1-yl)-5-((methylamino)methyl)pyrazine-2-carboxamide]	–	–	–	< 0.3	0.37	0.35	< 0.3	0.3	–	–	–	–	–
C#Cc1c(-c2cnc3ccccc3c2)c2c(N)ncnc2n1C12CCC(NC(=O)c3cnc(CN(C)C)cn3)(CC1)C2 [Example 68, N-(4-(4-Amino-6-ethynyl-5-(quinolin-3-yl)-7H-pyrrolo[2,3-d]pyrimidin-7-yl)bicyclo-[2.2.1]heptan-1-yl)-5-((dimethylamino)methyl)pyrazine-2-carboxamide]	–	–	–	< 0.3	0.36	0.43	< 0.3	< 0.3	–	–	–	–	–
C#Cc1c(-c2cnc3ccccc3c2)c2c(N)ncnc2n1C12CCC(NC(=O)c3cnc(CN4CCOCC4)cn3)(CC1)C2 [Example 69, N-(4-(4-Amino-6-ethynyl-5-(quinolin-3-yl)-7H-pyrrolo[2,3-d]pyrimidin-7-yl)bicyclo-[2.2.1]heptan-1-yl)-5-(morpholinomethyl)pyrazine-2-carboxamide]	–	–	–	< 0.3	0.59	0.74	< 0.3	< 0.3	–	–	–	–	–
C#Cc1c(-c2cnc3ccccc3c2)c2c(N)ncnc2n1C12CCC(NC(=O)c3ccc(P(C)(C)=O)cn3)(CC1)C2 [Example 70, N-(4-(4-Amino-6-ethynyl-5-(quinolin-3-yl)-7H-pyrrolo[2,3-d]pyrimidin-7-yl)bicyclo-[2.2.1]heptan-1-yl)-5-(dimethylphosphoryl)picolinamide]	–	–	–	< 0.3	1.6	0.94	< 0.3	0.7	–	–	–	–	–
N-4-(4-Amino-6-ethynyl-5-(quinolin-3-yl)-7H-pyrrolo[2,3-d]pyrimidin-7-yl)bicyclo -[2.2.1]heptane-1-yl)oxazole-5-carboxamide [Example 47]	–	–	–	–	–	–	–	–	0.59	0.36	0.41	< 0.3	0.33
